Test results from patent US20230141823A1, “PREBIOTIC AND PROBIOTIC TREATMENT TO REDUCE ORAL DYSBIOSIS AND PROMOTE EUBIOSIS” (FUNDACIÓN PARA EL FOMENTO DE LA INVESTIGACIÓN SANITARIA Y …, priority 2019, published 2023).
Like-named read-outs stand apart in the source and are kept apart here.

Experiments:
[1] = test system: oral biofilm grown from saliva of donors D2 and D25; assay: Effect of isolates on in vitro biofilms: colonization by sequencing; type: cell-based, human; settings: 5 h of growth
Method: Six isolates selected as best potential probiotics based on the results from previous experiments were studied in vitro to define the effect of these isolates when they are added to an oral biofilm. These isolates were tested by growing them with saliva of two different donors (D2 and D25 in our database) in a 96-wells plate. For each experiment, there were 4 conditions: control, nitrate (i.e., 6.5 mM nitrate), control+isolate, and nitrate+isolate. […] Then, 100 pL of saliva (or BHI for negative controls) was added and, for the nitrate conditions, 10 pL of nitrate solution 65 mM was added (or 10 pL of BHI for control conditions). Negative controls were added in each experiment: only BHI medium and BHI medium+nitrate. Before being added to the 96-well plate, the isolates were grown for 24 h. Then, 40 pL isolate in BHI solution with OD 1.5 was added (or 40 pL of just BHI in conditions without isolates) to each well. The final concentration of nitrate was 6.5 mM and starting OD of the isolate was 0.24. The 96-well plate was sealed to prevent oxygen presence, and incubated during 5 h 30 min at 37° C. After that, the supernatant was collected, the pellet resuspended in 30 pL of PBS and both stored at −20° C. until measurements were performed. The DNA was extracted and the biofilms were sequenced as described in EXAMPLE 1.

[2] = test system: oral biofilms grown from unstimulated saliva
Method: (§1) BHI medium (Biolife) with an additional 0.05 mg/L haemin, 0.005 mg/L menadione and 0.2 mM vitamin K (all Sigma-Aldrich) was prepared of which 100 pi was added to each well for background impedance measurements. An additional 25 µl of a 65 mM nitrate in water or just water were added to each well of the nitrate or control condition, respectively. Then, 125 pi freshly collected saliva was added, leading to a final concentration of 6.5 mM nitrate in the nitrate condition. The E-Plate 96 was placed in the xCELLigence system inside an incubator at 37° C. Every 10 minutes, a Cell Index measurement was taken. […] For Oh measurements, 1:1 medium and saliva mixtures were used. Then, duplicates of supernatant and biofilm were taken after 5 h and 9 h of growth. The supernatant was sampled and stored at −20° C. until pH, nitrate, nitrite, ammonium and lactate measurements. After this, a PBS washing step was performed and duplicates of biofilms were resuspended together in 200 pi PBS for storage at −20° C. until DNA isolation for sequencing.

[3] = test system: oral biofilms grown from unstimulated saliva; settings: 6.5 mM nitrate
Method: as §1
For DNA extraction, the biofilms were resuspended in 100 pi PBS and disaggregated 30 s in a sonicator bath (model Raypa VCI-50) at low ultrasound intensity. After this, DNA was isolated by MagNA Pure LC 2.0 Instrument (Roche Diagnostics), using the MagNA Pure LC DNA Isolation Kit III for Bacteria and Fungi (Roche Diagnostics) following the manufacturer's instructions with an additional enzymatic lysis step: to a salivary pellet in 100 pi PBS, […] lysis buffer and […] of enzyme mix, containing 20 mg/ml lysozyme ([…]), 5 mg/l lysostaphin (Sigma-Aldrich) and 0.625 mg/ml mutanolysin (Sigma-Aldrich), were added and incubated for 60 min at 37° C. DNA was resuspended in […] elution buffer and frozen at −20° C. until further analysis. To determine the amount of DNA for sequencing, the Quant-iT™ PicoGreen® dsDNA Assay Kit (ThermoFisher) and a Qubit™ 3 Fluorometer (ThermoScientific) were used, according to manufacturer's instructions.
A pre-amplification step of the V1-V5 regions of the 16S rRNA gene was performed, following Dzidic et al 2019. An Illumina amplicon library was performed following the 16S rDNA gene Metagenomic Sequencing Library Preparation Illumina protocol (Part #15044223 Rev. A). The gene-specific primer sequences used in this protocol were 16S Amplicon F (SEQ ID NO: 8) and 16S Amplicon R (SEQ ID NO: 9), targeting the 16S rDNA gene V3 and V4 regions, resulting in a single amplicon of 460 bp. Overhang adapter sequences were used together for compatibility with Illumina index and sequencing adapters. After 16S rDNA gene amplification, the DNA was sequenced on a MiSeq Sequencer according to manufacturer's instructions (Illumina) using the 2×300 bp paired-ends protocol.
The sequences were analyzed according to Boix-Amoros et al., 2016. In short, the reads were quality-filtered and end-trimmed in 10 bp windows with Prinseq. The PCR chimeras were removed with UCHIME according to Edgar et al., 2011. Only filtered sequences >250 bp were used to be taxonomically assigned at the genus level with the classifier of the Ribosomal Database Project (Wang et al., 2007), using a confidence interval of 80%. Operational Taxonomic Unit (OTU) picking was performed using VSEARCH (Rognes, 2016) at a 97% of sequence identity. Each OTU was aligned centroid using BLAST at 97% of identity and 100% query coverage, and retrieved only those species that agreed with the previous classification of the centroid at genus level provided by RDP classifier.
Overall R programming language was used for statistical computing to perform downstream analyses. Genera with an abundance of <0.01% were removed from all groups.

[4] = test system: oral biofilms grown from unstimulated saliva; remark: listed apart in the source
Method: as §1
(§2) For the nitrate, nitrite, ammonium, lactate and pH measurements, the RQflex® 10 Reflectoquant® (Merck Millipores), a reflectometer that measures the reflection of color changing test strips, was used.
In the case of nitrate, nitrite, ammonium and lactate measurements, the supernatant of the cultures was diluted 1:10 with water to minimize the interference of medium compounds. […] For pH measurements, undiluted supernatant was used. For all measurements except ammonium, 15 pi of (diluted) supernatant was added to two reactive patches on a strip, excess liquid was removed by tipping the side of the strip on a tissue, the corresponding incubation time was applied for each measurement, and the strip was put inside the reflectometer.
Nitrite was measured first. The diluted supernatants in which 0.5 mg/l or more nitrite was detected were treated with amidosulfuric acid to remove nitrite before nitrate measurements. For this, […] of diluted supernatant was mixed with 1.5 ml amidosulfuric acid solution (10%), and directly added to the strips.
For ammonium measurements, aliquots were made of […] diluted supernatant to which 10 m l of reagent 1 of the kit was added first and resuspended well. Then, […] of a freshly made mixture of one scoop of reagent 2 (both provided with the kit) dissolved in 1.25 ml water was added directly and resuspended well. This solution was then directly added to the strips and incubated. Five seconds before the measurements, excess liquid was removed. All measured concentrations were adjusted by dilution factors.

[5] = adult of 60 kg; cited from earlier work
[6] = test system: unstimulated saliva
Method: The unstimulated saliva of D25-D33 was used to test the effect of different concentrations of nitrate on a pH drop caused by 0.2% of glucose after 5 h of incubation. For each donor, 187 µl of saliva and 22 µl of glucose (2% diluted in water) was added per well of a standard 96-well plate. Then, 11 pL of water without or with different concentrations of nitrate was added, leading to final concentrations of 0 mM, 0.5 mM, 1 mM, 1.5 mM, 2.5 mM, 3.5 mM, 4.5 mM, 5.5 mM, 6.5 mM, 7.5 mM and 8.5 mM of nitrate. The plate was sealed with adhesive aluminum foil (VWR) and incubated during 5 h at 37° C. After incubation, the samples were stored at −20° C. until pH measurements.
as §2

[7] = in vivo; cited from earlier work
[8] = test system: biofilms from subgingival plaque of patients with periodontitis
Method: In addition to the oral biofilms from healthy individuals provided in EXAMPLE 1, ex vivo experiments with a dysbiotic community (subgingival plaque samples from patients with periodontitis) were performed. Eleven patients diagnosed with periodontitis were enrolled into the study. Subgingival plaque was collected by inserting eight to ten sterile paper points inside the deepest periodontal pockets. The paper points were then transferred to a 2 mL tube containing reduced transport media (RTF) and stored in a cooling box at around 4° C. for max. 18 hours. For the biofilm growth, BHI containing vitamin K and hemin (as described in EXAMPLE 1) was used. Transport medium was removed by centrifugation (1 min, 12000 rpm), followed by resuspension into 1 mL BHI. The xCELLigence system described in EXAMPLE 1 was used. Patient samples were incubated under four different conditions; control, nitrate, control+probiotic and nitrate+probiotic. First, 100 µl of periodontal plaque in BHI was added to the wells. Then, for the nitrate condition, 5 µl of 250 mM nitrate in BHI was added to the wells to obtain a 5 mM nitrate concentration. For the control+probiotic and nitrate+probiotic conditions, 45 pi of R. aeria D1P7 culture of OD (600 nm)=0.417 was added to the wells, resulting in a final OD (600 nm) of 0.075 per well. BHI was added to reach a final volume of 250 pi. A medium control (without patient sample or probiotic) with nitrate (Cntr) was used to determine the initial amounts of nitrate and nitrite in the medium. After 7 hours of incubation, supernatant and biofilm was harvested for nitrate/nitrite measurements and 16S rRNA gene sequencing, respectively (both described in EXAMPLE 1).

[9] = Donor 2, Nitrate condition (6.5 mM)
[10] = Donor 25, Nitrate condition (6.5 mM)

O=[N+]([O-])O [Nitrate, nitrate]
R. aeria (%) in biofilm [1, 9]: 0.06%
R. mucilaginosa (%) in biofilm [1, 9]: 2.33%
R. aeria (%) in biofilm [1, 10]: 0.03%
R. mucilaginosa (%) in biofilm [1, 10]: 7.94%
real-time impedance measurements of biofilm growth compared to control biofilms ([2]; 6.5 mM nitrate (403 mg/L)): did not show significant changes
biofilm protein levels compared to control ([2]; 6.5 mM nitrate, 5 h and 9 h): did not differ significantly
increase of Neisseria compared to control condition ([3]; 5 h): 3.5 ×
Bacterial abundance Aggregatibacter (Average) ([3]; 5 h (n = 12)): 0.55%
Bacterial abundance Alloprevotella (Average) ([3]; 5 h (n = 12)): 0.21%
Bacterial abundance Fusobacterium (Average) ([3]; 5 h (n = 12)): 0.15%
Bacterial abundance Gemella (Average) ([3]; 5 h (n = 12)): 2.76%
Bacterial abundance Granulicatella (Average) ([3]; 5 h (n = 12)): 2.16%
Bacterial abundance Haemophilus (Average) ([3]; 5 h (n = 12)): 7.30%
Bacterial abundance Leptotrichia (Average) ([3]; 5 h (n = 12)): 0.14%
Bacterial abundance Neisseria (Average) ([3]; 5 h (n = 12)): 20.65%
Bacterial abundance Other (Average) ([3]; 5 h (n = 12)): 3.64%
Bacterial abundance Porphyromonas (Average) ([3]; 5 h (n = 12)): 0.56%
Bacterial abundance Prevotella (Average) ([3]; 5 h (n = 12)): 1.99%
Bacterial abundance Rothia (Average) ([3]; 5 h (n = 12)): 0.53%
Bacterial abundance Streptococcus (Average) ([3]; 5 h (n = 12)): 45.29%
Bacterial abundance Viellonella (Average) ([3]; 5 h (n = 12)): 10.84%
Bacterial abundance unclass. Neisseriaceae (Average) ([3]; 5 h (n = 12)): 0.95%
Bacterial abundance unclass. Pasteurellaceae (Average) ([3]; 5 h (n = 12)): 2.00%
Bacterial abundance unclass. Veillonellaceae (Average) ([3]; 5 h (n = 12)): 0.26%
Rothia higher than in control condition ([3]; 5 h and 9 h): 2.7 ×
increase of Neisseria compared to control condition ([3]; 9 h): 4.9 ×
Bacterial abundance Aggregatibacter (Average) ([3]; 9 h (n = 12)): 0.72%
Bacterial abundance Alloprevotella (Average) ([3]; 9 h (n = 12)): 0.37%
Bacterial abundance Fusobacterium (Average) ([3]; 9 h (n = 12)): 0.38%
Bacterial abundance Gemella (Average) ([3]; 9 h (n = 12)): 1.83%
Bacterial abundance Granulicatella (Average) ([3]; 9 h (n = 12)): 1.56%
Bacterial abundance Haemophilus (Average) ([3]; 9 h (n = 12)): 8.86%
Bacterial abundance Leptotrichia (Average) ([3]; 9 h (n = 12)): 0.16%
Bacterial abundance Neisseria (Average) ([3]; 9 h (n = 12)): 20.99%
Bacterial abundance Other (Average) ([3]; 9 h (n = 12)): 4.80%
Bacterial abundance Porphyromonas (Average) ([3]; 9 h (n = 12)): 1.51%
Bacterial abundance Prevotella (Average) ([3]; 9 h (n = 12)): 2.78%
Bacterial abundance Rothia (Average) ([3]; 9 h (n = 12)): 0.25%
Bacterial abundance Streptococcus (Average) ([3]; 9 h (n = 12)): 31.75%
Bacterial abundance Viellonella (Average) ([3]; 9 h (n = 12)): 20.40%
Bacterial abundance unclass. Neisseriaceae (Average) ([3]; 9 h (n = 12)): 1.07%
Bacterial abundance unclass. Pasteurellaceae (Average) ([3]; 9 h (n = 12)): 2.12%
Bacterial abundance unclass. Veillonellaceae (Average) ([3]; 9 h (n = 12)): 0.38%
change of Kingella ([3]; after 5 h, p<0.05): increased significantly
Porphyromonas, Fusobacterium, Leptotrichia, Alloprevotella, Dialister and Parvimonas versus control ([3]; p<0.05 at 5 h and/or 9 h): significantly lower
change of caries-associated Atopobium and Oribacterium ([3]; p<0.05 at 5 h or 5 h and 9 h): decreased significantly
decrease of nitrate after 5 h ([4]; 6.5 mM nitrate added, 5 of 12 donors): 76-85%
nitrate left after 5 h ([4]; 6.5 mM nitrate added, 7 of 12 individuals): no nitrate detectable
average nitrite in supernatant ([4]; 6.5 mM nitrate condition, 5 h (1.64 mg/l at 0 h)): 64.68 mg/L
pH compared to control condition ([4]; 6.5 mM nitrate, 5 h and 9 h, p<0.005): significantly higher
share of the 6.5 mM added nitrate accounted for by ammonium (stoichiometric) ([4]; after 9 h): 73.1%
increase of average ammonium after 5 h ([4]; nitrate condition (control 1.72×)): 2.21 ×
increase of average lactate after 5 h ([4]; nitrate condition (control 4.74×)): 3.40 ×
ammonium higher than in the control condition ([4]; nitrate condition, after 9 h): 4.75 mM
Acceptable Daily Intake, ADI [5]: 222 mg
salivary pH after 5 h compared to 0 mM nitrate ([6]; 0.2% glucose, nitrate 0.5 mM to 8.5 mM): higher pH
nitrate concentrations for which no additional benefits were observed ([6]; after 5 h): above 3.5 mM
nitrate concentrations that prevented salivary acidification due to glucose fermentation ([6]; after 5 h): ≥ 0.5 mM
nitrate recycled by the salivary glands into saliva [7]: 25%
nitrate removed from the body by the kidneys into the urine [7]: Around 75%
mean growth curve of the periodontitis biofilms versus control condition ([8]; 11 patients, 7 h): lower
levels of periodontal pathogens such as Porphyromonas, Eikenella and Tannerella ([8]; 7 hours, versus control): reducing the levels
nitrate reduced after the 7 hours of growth ([8]; periodontal samples (n=11), anaerobic): around 20%
